Laboratory results reported in PubChem BioAssay AID2060492 (Molecular Pharmacology Branch, DTP, NCI, 2025).

Tested on: 695427-040-R-J1-PDC complex spheroids, viability percent T/C
Test: Anticancer human tumor 695427-040-R-J1-PDC patient-derived colon adenocarcinoma cell line growth inhibition [GQUAD]
Conditions: for IC50: curve of first compound; for viability, T/C: stronger effect = lower value; active = viability on the fitted dose curve at most 10% of control; inactive = the rest
Excerpt: DNA G-quadruplex Stabilizer Agents in Combinations in Complex Spheroids
A high-throughput screen of multi-cell type tumor spheroids was designed to identify active combinations of DNA G-quadruplex stabilizer agents and targeted small molecules. Complex spheroids include a stromal component modeled by human endothelial cells (HUVEC) and fibroblasts modeled by human mesenchymal stem cells (MSCs). The concentration ranges selected for each drug and investigational agent were based upon clinically achievable concentrations if the clinical Cmax of the agent was known.
Compounds. The drugs and investigational agents: pidnarulex (CX-5461; NSC782164), APTO-253 (NSC789042), BRACO-19 (NSC847499), peposertib (NSC802822), ceralasertib (NSC780249), elimusertib (NSC800525), camonsertib (NSC841442), AZD-1390 (NSC803789), olaparib (NSC753686), talazoparib (NSC767125), ART-558 (NSC835418), sotorasib (NSC818433), MRTX-1133 (NSC836407), SN-38 (NSC673596), topotecan (NSC609699), etoposide (NSC141540), doxorubicin (NSC123127), gemcitabine (NSC613327), 5-fluorouracil (NSC19893), paclitaxel (NSC125973), vemurafenib (NSC761431), panobinostat (NSC761190), R-306465 (JNJ-16241199; NSC773264), adavosertib (NSC754352), TP-3654 (NSC805149), carboplatin (NSC241240), KSQ-4279 (NSC840948), and staurosporine (NSC755774) were obtained from the National Cancer Institute (NCI) Developmental Therapeutics Program Chemical Repository (34). The FDA-approved anticancer drug set is available from the NCI Developmental Therapeutics Program. […] The stock solutions were prepared in dimethyl sulfoxide (DMSO, Sigma-Aldrich, St. Louis, MO, cat. D2650) at 800-fold the tested concentration and stored at -70 degrees C prior to their use. All drugs and investigational agents were tested over a range starting from a high concentration at or near the clinical Cmax and decreasing in half-log increments. If the clinical Cmax for an agent had not been determined, the highest concentration tested was 10 microM.
2.3 Cell Culture. All cells were maintained in an incubator at 37 degrees C and 5% CO2 with 95% humidity. The PDC lines were cultured according to standard operating procedures established by the NCI PDMR. All PDCs were thawed and cultured in Matrigel-coated flasks prepared with a working solution of 1X Ham's F-12 nutrient mix, without supplementation (Invitrogen, cat. 11765054), 100 U/mL penicillin-streptomycin (Invitrogen, cat. 15140122), and 2.5% Matrigel (Corning Inc., cat. 354248) for the first three passages. The 857933-349-R-J2-PDC line was cultured in 6C/Colon 1B media, which includes advanced DMEM/F-12 (Thermo Fisher Scientific, cat. 12634028), 10 mM HEPES (Thermo Fisher Scientific, cat. 15630080), 1X GlutaMAX supplement (Thermo Fisher Scientific, cat. 35050061), 0.1 mg/mL primocin (InvivoGen, cat. ant-pm-2), 10% defined fetal bovine serum, heat inactivated (HyClone Laboratories Inc., cat. SH30070.03HI), 50% L-WRN conditioned media (ATCC, cat. CRL-3276), 1.25 mM N-Acetyl-L-cysteine (Sigma-Aldrich, cat. A9165), 10 mM nicotinamide (Sigma-Aldrich, cat. N0636), 1X B-27 supplement (Thermo Fisher Scientific, cat. 17504044), 1X N-2 supplement (Thermo Fisher Scientific, cat. 17502048), 10 microM Y-27632 dihydrochloride (Tocris Bioscience, cat. 1254), and 50 ng/mL human EGF recombinant protein (Thermo Fisher Scientific, cat. PHG0311). The 485176-168-R4-J1-PDC line was cultured in Panc media, which includes all 6C/Colon 1B media components plus 100 ng/mL human FGF-10 (Thermo Fisher Scientific, cat. 100-26), 500 nM SB-431542 (Selleckchem, cat. S1067), and gastrin (Tocris, cat. 3006).
[…]

[1] = second compound 0.0316 µM, first compound 0.0316 µM
[2] = second compound 0.0316 µM, first compound 0.316 µM
[3] = second compound 0.1 µM, first compound 0.0316 µM
[4] = second compound 0.1 µM, first compound 0.316 µM
[5] = second compound 0.316 µM, first compound 0.0316 µM
[6] = second compound 0.316 µM, first compound 0.316 µM
[7] = second compound 1 µM, first compound 0.0316 µM
[8] = second compound 1 µM, first compound 0.316 µM
[9] = second compound 3.16 µM, first compound 0.0316 µM
[10] = second compound 3.16 µM, first compound 0.316 µM
[11] = second compound 10 µM, first compound 0.0316 µM
[12] = second compound 10 µM, first compound 0.316 µM
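Also: spheroids exposed to compounds for seven days before readout.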

CCc1c2c(nc3ccc(O)cc13)-c1cc3c(c(=O)n1C2)COC(=O)[C@]3(O)CC + CN(C)c1ccc(Nc2c3ccc(NC(=O)CCN4CCCC4)cc3nc3cc(NC(=O)CCN4CCCC4)ccc23)cc1
0.247 µM: IC50 (second compound 3.16 µM)
inactive: viability, T/C (second compound 0.0316 µM, first compound 0.000999 µM) 104% | viability, T/C (second compound 0.0316 µM, first compound 0.00316 µM) 94.5% | viability, T/C (second compound 0.0316 µM, first compound 0.00999 µM) 93.3% | viability, T/C [1] 74.7% | viability, T/C (second compound 0.0316 µM, first compound 0.0999 µM) 70.8% | viability, T/C [2] 51.3% | viability, T/C (second compound 0.1 µM, first compound 0.000999 µM) 108% | viability, T/C (second compound 0.1 µM, first compound 0.00316 µM) 90.2% | viability, T/C (second compound 0.1 µM, first compound 0.00999 µM) 85.4% | viability, T/C [3] 73.2% | viability, T/C (second compound 0.1 µM, first compound 0.0999 µM) 68.5% | viability, T/C [4] 53.2% | viability, T/C (second compound 0.316 µM, first compound 0.000999 µM) 103% | viability, T/C (second compound 0.316 µM, first compound 0.00316 µM) 94% | viability, T/C (second compound 0.316 µM, first compound 0.00999 µM) 84% | viability, T/C [5] 75% | viability, T/C (second compound 0.316 µM, first compound 0.0999 µM) 64.2% | viability, T/C [6] 49.6% | viability, T/C (second compound 1 µM, first compound 0.000999 µM) 99.2% | viability, T/C (second compound 1 µM, first compound 0.00316 µM) 89.3% | viability, T/C (second compound 1 µM, first compound 0.00999 µM) 82.1% | viability, T/C [7] 76.1% | viability, T/C (second compound 1 µM, first compound 0.0999 µM) 66.8% | viability, T/C [8] 51% | viability, T/C (second compound 3.16 µM, first compound 0.000999 µM) 94.2% | viability, T/C (second compound 3.16 µM, first compound 0.00316 µM) 97.8% | viability, T/C (second compound 3.16 µM, first compound 0.00999 µM) 85.7% | viability, T/C [9] 76.5% | viability, T/C (second compound 3.16 µM, first compound 0.0999 µM) 64.2% | viability, T/C [10] 46.2% | viability, T/C (second compound 10 µM, first compound 0.000999 µM) 90.2% | viability, T/C (second compound 10 µM, first compound 0.00316 µM) 88% | viability, T/C (second compound 10 µM, first compound 0.00999 µM) 71.9% | viability, T/C [11] 69.2% | viability, T/C (second compound 10 µM, first compound 0.0999 µM) 60.7% | viability, T/C [12] 46.3%
> 0.316 µM: IC50 (second compound 0.0316 µM) | IC50 (second compound 0.1 µM) | IC50 (second compound 0.316 µM) | IC50 (second compound 1 µM)
0.252 µM: IC50 (second compound 10 µM)

O=C(NO)c1cnc(N2CCN(S(=O)(=O)c3ccc4ccccc4c3)CC2)nc1 + CN(C)c1ccc(Nc2c3ccc(NC(=O)CCN4CCCC4)cc3nc3cc(NC(=O)CCN4CCCC4)ccc23)cc1
0.461 µM: IC50 (second compound 0.1 µM)
0.429 µM: IC50 (second compound 0.0316 µM)
0.431 µM: IC50 (second compound 0.316 µM)
inactive: viability, T/C [1] 98.9% | viability, T/C (second compound 0.0316 µM, first compound 0.1 µM) 93.1% | viability, T/C [2] 66.5% | viability, T/C [3] 107% | viability, T/C (second compound 0.1 µM, first compound 0.1 µM) 91.7% | viability, T/C [4] 72.4% | viability, T/C [5] 100% | viability, T/C (second compound 0.316 µM, first compound 0.1 µM) 101% | viability, T/C [6] 67.1% | viability, T/C [7] 97.1% | viability, T/C (second compound 1 µM, first compound 0.1 µM) 87.9% | viability, T/C [8] 62.3% | viability, T/C [9] 90.7% | viability, T/C (second compound 3.16 µM, first compound 0.1 µM) 89.5% | viability, T/C [10] 70% | viability, T/C [11] 84% | viability, T/C (second compound 10 µM, first compound 0.1 µM) 84.4% | viability, T/C [12] 56.8%
active: viability, T/C (second compound 0.0316 µM, first compound 1 µM) 4.08% | viability, T/C (second compound 0.0316 µM, first compound 3.16 µM) 0.2% | viability, T/C (second compound 0.0316 µM, first compound 10 µM) 0.24% | viability, T/C (second compound 0.1 µM, first compound 1 µM) 3.81% | viability, T/C (second compound 0.1 µM, first compound 3.16 µM) 0.24% | viability, T/C (second compound 0.1 µM, first compound 10 µM) 0.42% | viability, T/C (second compound 0.316 µM, first compound 1 µM) 3.52% | viability, T/C (second compound 0.316 µM, first compound 3.16 µM) 0.21% | viability, T/C (second compound 0.316 µM, first compound 10 µM) 0.44% | viability, T/C (second compound 1 µM, first compound 1 µM) 3.42% | viability, T/C (second compound 1 µM, first compound 3.16 µM) 0.2% | viability, T/C (second compound 1 µM, first compound 10 µM) 0.29% | viability, T/C (second compound 3.16 µM, first compound 1 µM) 3.74% | viability, T/C (second compound 3.16 µM, first compound 3.16 µM) 0.28% | viability, T/C (second compound 3.16 µM, first compound 10 µM) 0.31% | viability, T/C (second compound 10 µM, first compound 1 µM) 3.35% | viability, T/C (second compound 10 µM, first compound 3.16 µM) 0.35% | viability, T/C (second compound 10 µM, first compound 10 µM) 0.32%
0.447 µM: IC50 (second compound 3.16 µM)
0.401 µM: IC50 (second compound 1 µM)
0.366 µM: IC50 (second compound 10 µM)
